US9138434B2, “Octahydrothienoquinoline derivative, pharmaceutical composition comprising derivative, and use of these” (KISSEI PHARMACEUTICAL CO., LTD., priority 2011, dated 2015)
Where two headings read alike, the source gives them in different places.

Experiments:
[1] = target: T1, human dopamine D2 receptor (Homo sapiens, UniProt P14416); assay: Stimulating activities on human dopamine D2 receptor, [35S]GTPγS binding to hD2R#7 cell membrane homogenates; type: biochemical; settings: [35S]GTPγS binding, membrane homogenates of HEK293 cells stably expressing human D2 receptor; mean, n=2; read-out: EC50
T1 construct: accorded to it of human dopamine D2 receptor (NM1-000795) registered on NCBI completely; expressed in transfected cells; membrane homogenates
Protocol: Identification Test of Stimulating Activities on Human Dopamine D2 Receptor
4) Preparation of Membrane Homogenates from hD2R#7 Cells
(2) Preparation of Membrane Homogenates from hD2R#7 Cells
The cells, which were grown to confluence in 150 mm dishes (IWAKI), were harvested with isotonic buffer (50 mM Tris (Sigma), 2 mM ethylenediamine-tetraacetic acid (Invitrogen), and 125 mM sodium chloride (Wako Pure Chemicals), pH 7.4) and centrifuged at 1880×g and 4° C. for 10 minutes, and the cell pellets were then suspended in isotonic buffer. After being subjected to one cycle of freezing and thawing, the cells were centrifuged at 1880×g and 4° C. for 10 minutes, and the cell pellets were suspended in isotonic buffer. The cells were centrifuged at 1880×g and 4° C. for 10 minutes, and the cell pellets were suspended in isotonic buffer and homogenate buffer (10 mM sodium bicarbonate (Nacalai) and 5 mM ethylenediamine-tetraacetic acid, pH 7.5). The volume ratio of isotonic-to-homogenate buffer was 2. The cells were sonicated and centrifuged at 1880×g and 4° C. for 10 minutes, and the supernatants were ultracentrifuged at 80000×g and 4° C. for 30 minutes. The final cell pellets were suspended in homogenate buffer containing protease inhibitor cocktail (Nacalai) and stored at −80° C. until use. The protein concentration was determined using BCA Protein Assay Kit (Pierce) in accordance with the manufacturer's instructions.
5) Determination of Stimulating Activities of Human Dopamine D2 Receptor
The stimulating activities of human dopamine D2 receptor was determined by measuring the binding potential of [^35S]-guanosine 5′-[gamma-thio]triphosphate ([^35S]GTPγS, PerkinElmer) according to the method described by Newman-Tancredi A. et al. (Naunyn-Schmiedeberg's Arch Pharmacol, 1999, vol. 359, pp. 447-453) with a minor modification. Test compounds and dopamine hydrochloride (Fluka) as positive control were dissolved in dimethyl sulfoxide (CARLBIOCHEM), resulting in 30 mM. The both compounds were diluted with assay buffer (50 mM Tris, 100 mM sodium chloride, 5 mM magnesium chloride (Nacalai), 1 mM ethylenediamine-tetraacetic acid, 1 mM dithiothreitol (Wako Pure Chemicals), 10 μM guanosine diphosphate (Wako Pure Chemicals) and 0.5% bovine serum albumin (Sigma), pH 7.4) to a final concentration of 100 pM (only test compounds), 1 nM, 10 nM, 100 nM, 1 μM, 10 μM and 100 μM (only dopamine hydrochloride). The above membrane homogenates and [^35S]GTPγS were diluted with assay buffer to a final concentration of 0.06 mg/mL and 0.6 nM, respectively. The serial diluted compounds (50 μL), the diluted membrane homogenates (50 μL) and the diluted [^35S]GTPγS (50 μL) were mixed on multi-screen 96-well plate (Millipore) and shaken lightly at room temperature for 60 minutes. The reaction was terminated by vacuum filtration with three times washes of ice-cold wash buffer (50 mM Tris, 100 mM sodium chloride, 5 mM magnesium chloride, and 1 mM ethylenediamine-tetraacetic acid, pH 7.4). After drying the bottoms of the plate at 60° C., MicroScinti-40 (PerkinElmer) (30 μL) was added in the plate. The tops of the plate were sealed by TopSeal-A (PerkinElmer), and the radioactivity was determined in a TopCount NXT (registered mark) (PerkinElmer) after shaking lightly for 5-10 minutes. The data was analyzed by nonlinear regression and sigmoidal dose-response curve fitting using GraphPad PRISM 4.0 (GraphPad Software), and values of EC50 (concentration of the compound producing half the maximal effect of the compound) were calculated. The data was presented as mean value (n=2).

[2] = target: T2, human serotonin 5-HT2B receptor (Homo sapiens, UniProt P41595); assay: Stimulating activities on human serotonin 5-HT2B receptor, intracellular calcium in forced expression HEK293 cells; type: cell-based
T2 construct: expressed in transfected cells; host or cells: HEK293, transient transfection (Lipofectamine 2000)
Protocol: Identification Test of Stimulating Activities on Human Serotonin 5-HT2B Receptor
The PCR was performed using forward primer depicted as sequence ID No. 4, reverse primer depicted as sequence ID No. 5 and KOD-Plus-Ver.2 (TOYOBO) as template of human brain hippocampus cDNA (Clontech). The PCR product was inserted into a plasmid (pcDNA3.1/V5-His-Topo (registered mark)). The PCR product-inserted plasmid was transformed in E. coli (One Shot TOP10 Chemically Competent). That E. coli was incubated in LB agar medium contained 50 μg/mL ampicillin for a day. A selected colony was incubated in LB medium contained 50 μg/mL ampicillin and PCR product-inserted plasmid was purified with QIAprep Spin Miniprep Kit (QIAGEN).
Mostly confluent HEK293 cells were washed with PBS, followed by exfoliation with 0.05% trypsin-EDTA and the cells were suspended in D-MEM liquid medium (phenol red-free, low glucose, pyruvic acid were contained) containing fetal bovine serum (final concentration: 10%) and GlutaMax (registered mark)I (final concentration: 2 mM). The suspension was scattered at 5×10^4 cells/100 L/well on poly-D-lysine-coated 96-well microplate (BD BioCoat (registered mark)). The scattered cells were cultured in 5% CO2 incubator at 37° C. Human serotonin 5-HT2B receptor expression plasmid was transfected in that cells according to the procedure seeing below.
Human serotonin 5-HT2B receptor expression plasmid and Lipofectamine (registered mark) 2000 (Invitrogen) were diluted to 0.008 g/L and 0.016 g/L each other with OPTI-MEM (registered mark)I Reduced-Serum Medium and incubated at room temperature. After incubation, the human serotonin 5-HT2B receptor exoression plasmid-diluted liquid and Lipofectamine (registered mark) 2000-diluted liquid were mixed at an equal volume and incubated at room temperature to form a complex. The complex was dispensed at 50 μL/well on the cells prepared above. The cells were incubated in 5% CO2 incubator at 37° C. for 2 days. After incubation, the cells were used as human serotonin 5-HT2B receptor forced expression cells for measurement of intracellular calcium concentration.
3) Determination of Stimulating Activities of Human Serotonin 5-HT2B Receptor
The stimulating activities of human serotonin 5-HT2B receptor was determined by measuring of intracellular calcium concentration. The 30 mM dimethyl sulfoxide (DMSO) solution contained test compounds or serotonin hydrochloride (Sigma) as positive control, was diluted with assay buffer ((HBSS), 20 mM HEPES, 1.3 mM calcium chloride, 0.5 mM magnesium chloride and 0.4 mM magnesium sulfate were contained, pH7.4) to appropriate concentration.
The forced expression cells were washed with assay buffer, and 100 μL/well of fluorescent calcium indicator (Fluo-4 NW Calcium Assay Kit) was added and incubated in 5% CO2 incubator at 37° C. After incubation, 50 μL/well of each test compound was added, and the concentration of intracellular calcium was measured as fluorescent signal with FlexStation (registered mark) II (Molecular Devices). The data was analyzed by nonlinear regression and sigmoidal dose-response curve fitting using GraphPad PRISM 4.0, and values of EC50 (concentration of the compound producing half the maximal effect of the compound) were calculated. The data was presented as mean value (n=2).

[3] = intracellular calcium (Fluo-4), HEK293 cells transiently expressing human 5-HT2B receptor, mean, n=2, read-out: EC50

T1 sequence (P14416 whole entry): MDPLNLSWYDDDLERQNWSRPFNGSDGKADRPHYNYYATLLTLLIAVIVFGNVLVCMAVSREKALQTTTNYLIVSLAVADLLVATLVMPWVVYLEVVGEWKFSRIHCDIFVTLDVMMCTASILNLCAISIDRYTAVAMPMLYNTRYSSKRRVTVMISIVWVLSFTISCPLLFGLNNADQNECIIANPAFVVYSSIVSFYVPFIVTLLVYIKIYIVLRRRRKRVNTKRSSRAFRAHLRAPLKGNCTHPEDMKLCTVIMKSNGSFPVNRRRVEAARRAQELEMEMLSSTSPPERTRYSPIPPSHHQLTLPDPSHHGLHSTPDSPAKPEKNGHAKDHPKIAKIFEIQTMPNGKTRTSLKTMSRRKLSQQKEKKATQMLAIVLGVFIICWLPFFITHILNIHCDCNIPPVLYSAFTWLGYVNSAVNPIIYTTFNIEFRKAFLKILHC
T2 sequence (P41595 whole entry): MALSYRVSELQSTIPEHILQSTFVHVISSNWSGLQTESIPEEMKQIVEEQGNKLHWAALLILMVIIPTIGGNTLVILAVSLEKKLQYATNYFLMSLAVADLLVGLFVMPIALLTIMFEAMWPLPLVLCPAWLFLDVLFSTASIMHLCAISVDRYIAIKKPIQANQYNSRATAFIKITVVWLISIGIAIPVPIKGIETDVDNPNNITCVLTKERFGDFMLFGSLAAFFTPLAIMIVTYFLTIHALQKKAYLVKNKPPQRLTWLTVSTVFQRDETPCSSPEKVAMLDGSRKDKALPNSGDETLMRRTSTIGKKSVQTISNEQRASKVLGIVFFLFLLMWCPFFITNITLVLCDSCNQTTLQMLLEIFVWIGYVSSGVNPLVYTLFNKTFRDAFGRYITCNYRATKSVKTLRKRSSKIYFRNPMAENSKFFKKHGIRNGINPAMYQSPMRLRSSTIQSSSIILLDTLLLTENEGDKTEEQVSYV

With `CCCCN(C(=O)NCCN(C)C)C(=O)[C@@H]1C[C@@H]2Cc3c(sc(N)c3C#N)C[C@H]2N(C)C1` (relative stereo) [1-24, 1-{[(4aR*,6R*,8aR*)-2-amino-3-cyano-8-methyl-4H,4aH,5H,6H,7H,8H,8aH,9H-thieno[3,2-g]quinolin-6-yl]carbonyl}-1-butyl-3-[2-(dimethylamino)ethyl]urea] the EC50 [1] was 17 nM and the EC50 [2, 3] was over 10000 nM.
`CCCCN(C(=O)NCCN(CC)CC)C(=O)[C@@H]1C[C@@H]2Cc3c(sc(N)c3C#N)C[C@H]2N(C)C1` [1-3, 1-{[(4aR,6R,8aR)-2-amino-3-cyano-8-methyl-4H,4aH,5H,6H,7H,8H,8aH,9H-thieno[3,2-g]quinolin-6-yl]carbonyl}-1-butyl-3-[2-(diethylamino)ethyl]urea] was tested, and the EC50 [1] was 7 nM and the EC50 [2, 3] was over 10000 nM.
`CCN(C(=O)N[C@@H](C)CN(C)C)C(=O)[C@@H]1C[C@@H]2Cc3c(sc(N)c3C#N)C[C@H]2N(C)C1` [1-57, 1-{[(4aR,6R,8aR)-2-amino-3-cyano-8-methyl-4H,4aH,5H,6H, 7H,8H,8aH,9H-thieno[3,2-g]quinolin-6-yl]carbonyl}-3-[(2S)-1-(dimethylamino)propan-2-yl]-1-ethylurea] gave an EC50 [1] of 5 nM and an EC50 [2, 3] of over 10000 nM.
With `CCCN(CCC)CCc1cccc2c1CC(=O)N2` [Ropinirole, ropinirole, reference compound] the EC50 [1] was 892 nM and the EC50 [2] was 2590 nM.
`CC(C)CCN(C(=O)NCCN(C)C)C(=O)[C@@H]1C[C@@H]2Cc3c(sc(N)c3C#N)C[C@H]2N(C)C1` (relative stereo) [1-43, 1-{[(4aR*,6R*,8aR*)-2-amino-3-cyano-8-methyl-4H,4aH,5H,6H,7H,8H,8aH,9H-thieno[3,2-g]quinolin-6-yl]carbonyl}-3-[2-(dimethylamino)ethyl]-1-(3-methylbutyl)urea] showed an EC50 [1] of 32 nM and an EC50 [2, 3] of over 10000 nM.
In the case of `CCN(C(=O)NCC(C)(C)CN(C)C)C(=O)[C@@H]1C[C@@H]2Cc3c(sc(N)c3C#N)C[C@H]2N(C)C1` [1-4, 1-{[(4aR,6R,8aR)-2-amino-3-cyano-8-methyl-4H,4aH,5H,6H,7H,8H,8aH,9H-thieno[3,2-g]quinolin-6-yl]carbonyl}-3-[3-(dimethylamino)-2,2-dimethylpropyl]-1-ethlylurea], the EC50 [1] is reported as 3 nM and the EC50 [2, 3] is reported as over 10000 nM.
`CCCCN(C(=O)NCCN1CCCCC1)C(=O)[C@@H]1C[C@@H]2Cc3c(sc(N)c3C#N)C[C@H]2N(C)C1` (relative stereo) [1-46, 1-{[(4aR*,6R*,8aR*)-2-amino-3-cyano-8-methyl-4H,4aH,5H,6H,7H,8H,8aH,9H-thieno[3,2-g]quinolin-6-yl]carbonyl}-1-butyl-3-[2-(piperidin-1-yl)ethyl]urea] showed an EC50 [1] of 10 nM and an EC50 [2, 3] of over 10000 nM.
Work on `CCCN(C(=O)NCCN(C)C)C(=O)[C@@H]1C[C@@H]2Cc3c(sc(N)c3C#N)C[C@H]2N(C)C1` [1-1, 1-{[(4aR,6R,8aR)-2-amino-3-cyano-8-methyl-4H,4aH,5H, 6H,7H,8H,8aH,9H-thieno[3,2-g]quinolin-6-yl]carbonyl}-3-[2-(dimethylamino)ethyl]-1-propylurea] yielded an EC50 [1] of 6 nM and an EC50 [2, 3] of over 10000 nM.
In the case of `CCN(C(=O)NCCN(C)C)C(=O)[C@@H]1C[C@@H]2Cc3c(sc(N)c3C#N)C[C@H]2N(C)C1` [1-108, 1-{[(4aR,6R,8aR)-2-amino-3-cyano-8-methyl-4H,4aH,5H,6H,7H,8H,8aH,9H-thieno[3,2-g]quinolin-6-yl]carbonyl}-3-[2-(dimethylamino)ethyl]-1-ethylurea], the EC50 [1] is reported as 6 nM and the EC50 [2, 3] is reported as over 10000 nM.
